According to patent US9980943B2, “Methods of treating muscular dystrophy” (BOARD OF REGENTS OF THE NEVADA SYSTEM OF HIGHER EDUCATION, …, priority 2013, dated 2018):

Tests used:
Type in all cases: cell-based, mouse
[1] = test system: α7 integrin (LacZ reporter in α7βgal+/− myoblasts); assay: Myoblast α7+/LacZ integrin FDG assay (Burkin assay in myoblasts, 96-well); details: 96-well; for Burkin Assay in Myoblasts, signal relative to DMSO: α7+/LacZ myoblasts; for Burkin Assay in Myoblasts, value relative to DMSO: SU9516 analogs, N=3-6
[2] = test system: α7 integrin (LacZ reporter in α7+/LacZ myotubes); assay: Myotube α7 integrin FDG assay (Burkin assay in myotubes, 96-well); details: for Burkin Assay in Myotubes, value relative to DMSO: SU9516 analogs, 96-well, N=3-6
[3] = test system: β-galactosidase in CMV-LacZ C2C12 myoblasts; assay: CMV-LacZ secondary screen in C2C12 myoblasts (β-Gal stabilizing assay); details: for CMV-LACZ in Myoblasts (β-galactosidase activity relative to DMSO): CMV-LacZ C2C12 myoblasts; for CMV-LACZ in Myoblasts, value relative to DMSO: SU9516 analogs, C2C12 CMV-LacZ, N=2
Outline: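 Stable CMV-LacZ C2C12 clone; six-point curve 0.5–40 μM; duplicates.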

[4] = test system: β-galactosidase in CMV-LacZ C2C12 myotubes; assay: CMV-LacZ secondary screen in C2C12 myotubes (β-Gal stabilizing assay); details: for CMV-LACZ in Myotubes, signal relative to DMSO: C2C12 CMV-LacZ myotubes, fold relative to DMSO; for CMV-LACZ in Myotubes, value relative to DMSO: SU9516 analogs, C2C12 CMV-LacZ, N=2
Outline: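 β-Gal level was the read-out, measured in a clonal C2C12 line expressing LacZ from a CMV promoter. Dose-response curves used six concentrations, 0.5 μM up to 40 μM, with duplicate points.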

SMILES: CC1Cc2ccccc2N1C(=O)CSc1nnc(N)s1 (stereo not drawn) [MLS001160611-01]
- Burkin Assay in Myoblasts, signal relative to DMSO ([1]; 0.5 uM): 1.1058
- Burkin Assay in Myoblasts, signal relative to DMSO ([1]; 1 uM): 0.9767
- Burkin Assay in Myoblasts, signal relative to DMSO ([1]; 5 uM): 1.004
- Burkin Assay in Myoblasts, signal relative to DMSO ([1]; 10 uM): 1.115
- Burkin Assay in Myoblasts, signal relative to DMSO ([1]; 20 uM): 0.9749
- Burkin Assay in Myoblasts, signal relative to DMSO ([1]; 40 uM): 0.9267
- Burkin Assay in Myotubes, α7 integrin LacZ reporter signal relative to DMSO ([2]; 0.5 uM): 0.9452
- Burkin Assay in Myotubes, α7 integrin LacZ reporter signal relative to DMSO ([2]; 1 uM): 0.8628
- Burkin Assay in Myotubes, α7 integrin LacZ reporter signal relative to DMSO ([2]; 5 uM): 1.006
- Burkin Assay in Myotubes, α7 integrin LacZ reporter signal relative to DMSO ([2]; 10 uM): 1.169
- Burkin Assay in Myotubes, α7 integrin LacZ reporter signal relative to DMSO ([2]; 20 uM): 0.8397
- Burkin Assay in Myotubes, α7 integrin LacZ reporter signal relative to DMSO ([2]; 40 uM): 1.24
- CMV-LACZ in Myoblasts (β-galactosidase activity relative to DMSO) ([3]; 0.5 uM): 1.2070
- CMV-LACZ in Myoblasts (β-galactosidase activity relative to DMSO) ([3]; 1 uM): 0.8157
- CMV-LACZ in Myoblasts (β-galactosidase activity relative to DMSO) ([3]; 5 uM): 1.0117
- CMV-LACZ in Myoblasts (β-galactosidase activity relative to DMSO) ([3]; 10 uM): 1.0340
- CMV-LACZ in Myoblasts (β-galactosidase activity relative to DMSO) ([3]; 20 uM): 0.8144
- CMV-LACZ in Myoblasts (β-galactosidase activity relative to DMSO) ([3]; 40 uM): 1.0389
- CMV-LACZ in Myotubes, signal relative to DMSO ([4]; 0.5 uM): 0.9762
- CMV-LACZ in Myotubes, signal relative to DMSO ([4]; 1 uM): 1.2419
- CMV-LACZ in Myotubes, signal relative to DMSO ([4]; 5 uM): 0.8306
- CMV-LACZ in Myotubes, signal relative to DMSO ([4]; 10 uM): 0.9661
- CMV-LACZ in Myotubes, signal relative to DMSO ([4]; 20 uM): 1.0240
- CMV-LACZ in Myotubes, signal relative to DMSO ([4]; 40 uM): 0.9190

SMILES: O=Nc1c(-c2c(O)[nH]c3ccccc23)[nH]c2ccccc12 [NCGC00015545-07]
- Burkin Assay in Myoblasts, value relative to DMSO ([1]; 0.5 uM): 1.073
- Burkin Assay in Myoblasts, value relative to DMSO ([1]; 1 uM): 1.12
- Burkin Assay in Myoblasts, value relative to DMSO ([1]; 5 uM): 0.8463
- Burkin Assay in Myoblasts, value relative to DMSO ([1]; 10 uM): 0.568
- Burkin Assay in Myoblasts, value relative to DMSO ([1]; 20 uM): 0.3068
- Burkin Assay in Myoblasts, value relative to DMSO ([1]; 40 uM): 0.242
- Burkin Assay in Myotubes, value relative to DMSO ([2]; 0.5 uM): 1.126
- Burkin Assay in Myotubes, value relative to DMSO ([2]; 1 uM): 1.08
- Burkin Assay in Myotubes, value relative to DMSO ([2]; 5 uM): 0.8721
- Burkin Assay in Myotubes, value relative to DMSO ([2]; 10 uM): 0.7457
- Burkin Assay in Myotubes, value relative to DMSO ([2]; 20 uM): 0.6654
- Burkin Assay in Myotubes, value relative to DMSO ([2]; 40 uM): 0.4975
- CMV-LACZ in Myoblasts, value relative to DMSO ([3]; 0.5 uM): 1.2967
- CMV-LACZ in Myoblasts, value relative to DMSO ([3]; 1 uM): 1.1950
- CMV-LACZ in Myoblasts, value relative to DMSO ([3]; 5 uM): 0.7896
- CMV-LACZ in Myoblasts, value relative to DMSO ([3]; 10 uM): 0.8603
- CMV-LACZ in Myoblasts, value relative to DMSO ([3]; 20 uM): 0.5257
- CMV-LACZ in Myoblasts, value relative to DMSO ([3]; 40 uM): 0.3383
- CMV-LACZ in Myotubes, value relative to DMSO ([4]; 0.5 uM): 1.0736
- CMV-LACZ in Myotubes, value relative to DMSO ([4]; 1 uM): 1.1036
- CMV-LACZ in Myotubes, value relative to DMSO ([4]; 5 uM): 0.9434
- CMV-LACZ in Myotubes, value relative to DMSO ([4]; 10 uM): 0.8393
- CMV-LACZ in Myotubes, value relative to DMSO ([4]; 20 uM): 0.7010
- CMV-LACZ in Myotubes, value relative to DMSO ([4]; 40 uM): 0.5470

SMILES: Cn1c(O)c(C(C#N)=C2N=c3ccccc3=N2)c2ccccc21 [MLS000536064-01]
- Burkin Assay in Myoblasts, signal relative to DMSO ([1]; 0.5 uM): 0.8028
- Burkin Assay in Myoblasts, signal relative to DMSO ([1]; 1 uM): 0.804
- Burkin Assay in Myoblasts, signal relative to DMSO ([1]; 5 uM): 0.7333
- Burkin Assay in Myoblasts, signal relative to DMSO ([1]; 10 uM): 1.047
- Burkin Assay in Myoblasts, signal relative to DMSO ([1]; 20 uM): 0.544
- Burkin Assay in Myoblasts, signal relative to DMSO ([1]; 40 uM): 0.4501
- Burkin Assay in Myotubes, α7 integrin LacZ reporter signal relative to DMSO ([2]; 0.5 uM): 0.9046
- Burkin Assay in Myotubes, α7 integrin LacZ reporter signal relative to DMSO ([2]; 1 uM): 0.9555
- Burkin Assay in Myotubes, α7 integrin LacZ reporter signal relative to DMSO ([2]; 5 uM): 0.9539
- Burkin Assay in Myotubes, α7 integrin LacZ reporter signal relative to DMSO ([2]; 10 uM): 1.131
- Burkin Assay in Myotubes, α7 integrin LacZ reporter signal relative to DMSO ([2]; 20 uM): 0.7642
- Burkin Assay in Myotubes, α7 integrin LacZ reporter signal relative to DMSO ([2]; 40 uM): 0.7073
- CMV-LACZ in Myoblasts (β-galactosidase activity relative to DMSO) ([3]; 0.5 uM): 0.9105
- CMV-LACZ in Myoblasts (β-galactosidase activity relative to DMSO) ([3]; 1 uM): 0.7412
- CMV-LACZ in Myoblasts (β-galactosidase activity relative to DMSO) ([3]; 5 uM): 2.0402
- CMV-LACZ in Myoblasts (β-galactosidase activity relative to DMSO) ([3]; 10 uM): 1.3388
- CMV-LACZ in Myoblasts (β-galactosidase activity relative to DMSO) ([3]; 20 uM): 2.5396
- CMV-LACZ in Myoblasts (β-galactosidase activity relative to DMSO) ([3]; 40 uM): 2.4896
- CMV-LACZ in Myotubes, signal relative to DMSO ([4]; 0.5 uM): 0.9705
- CMV-LACZ in Myotubes, signal relative to DMSO ([4]; 1 uM): 1.0389
- CMV-LACZ in Myotubes, signal relative to DMSO ([4]; 5 uM): 0.8894
- CMV-LACZ in Myotubes, signal relative to DMSO ([4]; 10 uM): 1.1027
- CMV-LACZ in Myotubes, signal relative to DMSO ([4]; 20 uM): 1.2344
- CMV-LACZ in Myotubes, signal relative to DMSO ([4]; 40 uM): 1.0233
